Measured values reported in PMC8623418, “Novel Multitarget Hydroxamic Acids with a Natural Origin CAP Group against Alzheimer’s Disease: Synthesis, Docking and Biological Evaluation” (Pharmaceutics, 2021).

Assays:
HDAC6 = target: T1, HDAC6 (Homo sapiens, UniProt Q9UBN7); experiment: HDAC6 enzyme activity, FLUOR DE LYS fluorometric kit; type: biochemical; conditions: mean ± SEM; read-out: IC50 HDAC6 Inhibitory Activity
T1 construct: purchased Enzo Life Sciences (Enzo Biochem, New York, NY, USA)
T1 sequence (Q9UBN7 1-1215): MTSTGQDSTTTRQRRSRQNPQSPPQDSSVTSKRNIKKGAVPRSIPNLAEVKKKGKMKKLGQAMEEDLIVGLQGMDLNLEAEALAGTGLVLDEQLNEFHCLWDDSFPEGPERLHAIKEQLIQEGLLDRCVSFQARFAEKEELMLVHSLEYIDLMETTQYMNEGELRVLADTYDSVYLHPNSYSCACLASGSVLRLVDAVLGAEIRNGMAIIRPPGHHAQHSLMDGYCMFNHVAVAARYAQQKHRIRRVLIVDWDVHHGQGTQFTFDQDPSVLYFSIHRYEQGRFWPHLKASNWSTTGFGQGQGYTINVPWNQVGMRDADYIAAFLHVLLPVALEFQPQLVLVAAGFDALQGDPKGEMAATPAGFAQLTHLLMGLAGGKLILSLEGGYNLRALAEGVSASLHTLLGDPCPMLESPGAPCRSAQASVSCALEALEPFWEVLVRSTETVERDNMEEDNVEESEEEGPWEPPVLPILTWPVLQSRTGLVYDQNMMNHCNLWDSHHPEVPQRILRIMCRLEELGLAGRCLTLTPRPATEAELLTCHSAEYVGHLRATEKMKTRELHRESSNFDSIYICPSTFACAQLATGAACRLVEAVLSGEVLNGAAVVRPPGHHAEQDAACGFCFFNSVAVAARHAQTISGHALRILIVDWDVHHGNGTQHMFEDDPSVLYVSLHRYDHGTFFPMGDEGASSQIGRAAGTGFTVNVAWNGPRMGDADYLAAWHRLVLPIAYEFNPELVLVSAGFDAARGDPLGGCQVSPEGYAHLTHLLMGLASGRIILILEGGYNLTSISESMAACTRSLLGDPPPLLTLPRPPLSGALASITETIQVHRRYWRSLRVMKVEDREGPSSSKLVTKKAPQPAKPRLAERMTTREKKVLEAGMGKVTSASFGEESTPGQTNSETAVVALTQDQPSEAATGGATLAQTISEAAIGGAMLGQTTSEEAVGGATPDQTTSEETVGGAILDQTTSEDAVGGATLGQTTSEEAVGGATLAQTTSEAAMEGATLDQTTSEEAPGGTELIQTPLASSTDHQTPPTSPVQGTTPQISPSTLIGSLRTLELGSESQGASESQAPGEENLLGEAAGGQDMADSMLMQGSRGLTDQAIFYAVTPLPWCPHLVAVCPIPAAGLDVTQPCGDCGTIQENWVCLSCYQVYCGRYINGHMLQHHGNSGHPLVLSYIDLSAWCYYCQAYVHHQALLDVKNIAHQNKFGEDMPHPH

β-amyloid 1–40 = β-amyloid 1–40 aggregation, Thioflavin T fluorescence; type: biochemical; conditions: 100 μM, 72 h incubation
Description: The effect of the studied compounds on the aggregation of β-amyloid (1–40/1–42) was analyzed using the method of recording Thioflavin T fluorescence (10 µM) for 72 h at 37 °C. The fluorescence signal was measured using a multifunctional flatbed analyzer, the Cytation ™ 3 (BioTek Instruments, Inc., Winooski, VT, USA), at λex = 450 nm, λem = 480 nm.
The effect of hydroxamic acids on the stage of aggregation of the pathological β-amyloid peptide was investigated for 72 h using two model systems—fragments Aβ1–40 and Aβ1–42. The fluorophore Thioflavin T was used as an indicator of the ongoing fibrillation process, the interaction of which with proteins in the state of amyloid fibrils leads to an increase in the fluorescence signal.

SH-SY5Y cells = experiment: MTT cell viability, SH-SY5Y; type: cell-based; conditions: Homo sapiens, MTT test
Description: The effect of the hydroxamic acids on the viability of cells obtained from human embryonic kidneys, HEK 293, as well as the native form of human neuroblastoma, SH-SY5Y, was evaluated in the MTT test. Using a multifunctional flatbed analyzer, Cytation™3 (BioTek Instruments, Inc., Winooski, VT, USA), the optical density was determined at a wavelength of 530 nm. Based on the dose-dependent curves, the concentration values leading to 50% inhibition of cell population growth (IC50) were calculated.
Due to the fact that most compounds of the class of hydroxamic acids have high cytotoxic activity and are mainly used as anticancer drugs, their use as neuroprotective drugs is limited. Since the goal of our work was to search for agents for the pharmacological correction of neurodegenerative diseases, a necessary part of the biological activity study of the synthesized hydroxamic acids was to determine their effect on the survival of cell cultures. In our work, we used neuron-like neuroblastoma cells SH-SY5Y and a healthy cell line isolated from the human embryonic kidney, HEK 293.

[1] = tested on: lipid peroxidation (LPO) of rat brain homogenate; experiment: Lipid peroxidation (LPO) of rat brain homogenate, TBARS test; type: biochemical; conditions: substances at 100 μM, mean ± SEM; for % of Activity, Inhibition of LPO, Fe (II): Fe (II)-induced; for % of Activity, Inhibition of LPO, t-BHP: t-BHP-induced
Description: To obtain the brain homogenate, rats preliminarily anesthetized with CO2 were decapitated with a guillotine. The brain was homogenized in a buffer containing KCl (120 mM) and HEPES (20 mM), pH = 7.4 at 4 °C, and centrifuged at 1500 rpm to obtain a supernatant. The protein was quantified according to the standard microbiuret method.
To investigate the effect of the compounds on lipid peroxidation (LPO) of rat brain homogenate, we used the modified version of the TBARS test, which is based on the reaction of 2-thiobarbituric acid with the end LPO product—malonic dialdehyde (MDA). The plate well, according to the experimental scheme, contained the compounds under study (100 μM), rat brain homogenate (2 mg/mL), as well as ferrous iron ions ([…]) at a concentration of 500 μM and 1.6 mM tert-butyl hydroxyperoxide as an initiator. After 30 min of incubation at 37 °C, TBARS reagent was added to all samples, incubated for 90 min at 90 °C, and centrifuged at 6000 rpm for 15 min. The optical density of the selected supernatant was measured on a Victor 3 plate reader (Perkin Elmer) at λ = 540 nm.
A rat brain homogenate preparation containing fragments of cell membranes was used as a model system to investigate the antioxidant activity of the hydroxamic acids. To initiate the process of lipid peroxidation, ferrous ions were used to trigger the Fenton reaction, during which the iron valence changes and a highly reactive hydroxyl radical is formed, and tert-butyl hydroxyperoxide as a direct source of free radicals.

Row | SMILES | IC50 (HDAC6) [µM] | Effect on β-amyloid 1–40 aggregation (β-amyloid 1–40) | IC50 (SH-SY5Y cells) [µM] | % of Activity, Inhibition of LPO, Fe (II) [1] [%] | % of Activity, Inhibition of LPO, t-BHP [1] [%]
1 | O=C(CCCCCCC(=O)NC1C2CC3CC(C2)CC1C3)NO (stereo not shown) [compound 15, N^1-(Adamant-2-yl)-N^8-Hydroxyoctanediamide] | 0.96 ± 0.01 | noticeable fibrillation inhibition | 47.6 ± 7.19 | 21.52 ± 2.15 | 43.24 ± 1.28
2 | O=C(/C=C/c1ccc(C(=O)NO)cc1)NC1C2CC3CC(C2)CC1C3 (stereo not shown) [compound 25, 4-((E)-3-((-Adamantan-2-yl)amino)-3-Oxoprop-1-en-1-yl)-N-Hydroxybenzamide] | 6.52 ± 0.4 | noticeable fibrillation inhibition | 59.51 ± 0.42 | 19.81 ± 4.83 | 44.59 ± 1.73
